Measurements as given in ChEMBL document CHEMBL3885881, “DrugMatrix”.

Organism: Rattus norvegicus
Test: DrugMatrix - Regimen: Daily Repeat
Type: toxicity, organism-based, Sprague-Dawley
Parameters: regimen Daily Repeat, gender Male, age 6-8 weeks
Details: in vivo, sc, route subcutaneous, […]; for ABSOLUTE BASOPHIL / ABSOLUTE EOSINOPHIL / ABSOLUTE LYMPHOCYTE / ABSOLUTE MONOCYTE / ABSOLUTE SEGMENTED NEUTROPHIL / BASOPHIL / EOSINOPHIL / ERYTHROCYTE COUNT / HEMATOCRIT / HEMOGLOBIN / LEUKOCYTE COUNT / LYMPHOCYTE / MEAN CORPUSCULAR HEMOGLOBIN / MEAN CORPUSCULAR HEMOGLOBIN CONCENTRATION / MEAN CORPUSCULAR VOLUME / MONOCYTE / NEUTROPHIL / NUCLEATED RED BLOOD CELLS / PLATELET COUNT: tissue Blood; for ALANINE AMINOTRANSFERASE / ALBUMIN / ALKALINE PHOSPHATASE / ASPARTATE AMINOTRANSFERASE / BLOOD UREA NITROGEN / CARBON DIOXIDE / CHLORIDE / CHOLESTEROL / CREATINE PHOSPHOKINASE / CREATININE / GLUCOSE / LACTATE DEHYDROGENASE / LIPASE / PHOSPHORUS / POTASSIUM / SODIUM / TOTAL BILIRUBIN / TOTAL PROTEIN / URIC ACID: tissue Plasma
[1] = 3 mg/kg, 72 h, dose level Low, time 3 day
[2] = 3 mg/kg, 120 h, dose level Low, time 5 day
[3] = 1500 mg/kg, 72 h, dose level High, time 3 day
[4] = 1500 mg/kg, 120 h, dose level High, time 5 day

## Clc1ccc(CO/N=C(\Cn2ccnc2)c2ccc(Cl)cc2Cl)c(Cl)c1 [OXICONAZOLE]
[1]
  ABSOLUTE BASOPHIL: 0 CELLS/uL
  ABSOLUTE EOSINOPHIL: 0 CELLS/uL
  ABSOLUTE LYMPHOCYTE: 11885.67 CELLS/uL
  ABSOLUTE MONOCYTE: 211.33 CELLS/uL
  ABSOLUTE SEGMENTED NEUTROPHIL: 736.33 CELLS/uL
  BASOPHIL: 0%
  EOSINOPHIL: 0%
  ERYTHROCYTE COUNT: 5.9 x10E6/uL
  HEMATOCRIT: 37.23%
  HEMOGLOBIN: 14.13 G/DL
  LEUKOCYTE COUNT: 12.83 x10E3/uL
  LYMPHOCYTE: 92.33%
  MEAN CORPUSCULAR HEMOGLOBIN: 24 pg
  MEAN CORPUSCULAR HEMOGLOBIN CONCENTRATION: 38 G/DL
  MEAN CORPUSCULAR VOLUME: 63.17 fL
  MONOCYTE: 1.67%
  NEUTROPHIL: 6%
  NUCLEATED RED BLOOD CELLS: 0 /100WBC
  PLATELET COUNT: 1370 x10E3/uL
  ALANINE AMINOTRANSFERASE: 44 u/L
  ALBUMIN: 4.63 G/DL
  ALKALINE PHOSPHATASE: 333.33 u/L
  ASPARTATE AMINOTRANSFERASE: 101.67 u/L
  BLOOD UREA NITROGEN: 18.33 mg/dL
  CARBON DIOXIDE: 21.33 mmol/L
  CHLORIDE: 96 MEQ/L
  CHOLESTEROL: 92.67 mg/dL
  CREATINE PHOSPHOKINASE: 602 u/L
  CREATININE: 0.2 mg/dL
  GLUCOSE: 137 mg/dL
  LACTATE DEHYDROGENASE: 701 u/L
  LIPASE: 10 u/L
  PHOSPHORUS: 12.9 mg/dL
  POTASSIUM: 6.82 MEQ/L
  SODIUM: 140.17 MEQ/L
  TOTAL BILIRUBIN: 0.17 mg/dL
  TOTAL PROTEIN: 6.4 G/DL
  URIC ACID: 1.77 mg/dL
[2]
  ABSOLUTE BASOPHIL: 0 CELLS/uL
  ABSOLUTE EOSINOPHIL: 80 CELLS/uL
  ABSOLUTE LYMPHOCYTE: 13140 CELLS/uL
  ABSOLUTE MONOCYTE: 187.67 CELLS/uL
  ABSOLUTE SEGMENTED NEUTROPHIL: 1059 CELLS/uL
  BASOPHIL: 0%
  EOSINOPHIL: 0.67%
  ERYTHROCYTE COUNT: 5.43 x10E6/uL
  HEMATOCRIT: 34.63%
  HEMOGLOBIN: 13.57 G/DL
  LEUKOCYTE COUNT: 14.47 x10E3/uL
  LYMPHOCYTE: 91%
  MEAN CORPUSCULAR HEMOGLOBIN: 25 pg
  MEAN CORPUSCULAR HEMOGLOBIN CONCENTRATION: 39.17 G/DL
  MEAN CORPUSCULAR VOLUME: 63.83 fL
  MONOCYTE: 1.33%
  NEUTROPHIL: 7%
  NUCLEATED RED BLOOD CELLS: 0 /100WBC
  PLATELET COUNT: 1246.67 x10E3/uL
  ALANINE AMINOTRANSFERASE: 45.67 u/L
  ALBUMIN: 4.03 G/DL
  ALKALINE PHOSPHATASE: 333 u/L
  ASPARTATE AMINOTRANSFERASE: 70.33 u/L
  BLOOD UREA NITROGEN: 14 mg/dL
  CARBON DIOXIDE: 27.33 mmol/L
  CHLORIDE: 101 MEQ/L
  CHOLESTEROL: 71.33 mg/dL
  CREATINE PHOSPHOKINASE: 209.67 u/L
  CREATININE: 0.12 mg/dL
  GLUCOSE: 150 mg/dL
  LACTATE DEHYDROGENASE: 187.33 u/L
  LIPASE: 8.67 u/L
  PHOSPHORUS: 11 mg/dL
  POTASSIUM: 6.62 MEQ/L
  SODIUM: 144.57 MEQ/L
  TOTAL BILIRUBIN: 0.23 mg/dL
  TOTAL PROTEIN: 5.9 G/DL
  URIC ACID: 1.23 mg/dL
[3]
  ABSOLUTE BASOPHIL: 0 CELLS/uL
  ABSOLUTE EOSINOPHIL: 0 CELLS/uL
  ABSOLUTE LYMPHOCYTE: 11731.33 CELLS/uL
  ABSOLUTE MONOCYTE: 603.33 CELLS/uL
  ABSOLUTE SEGMENTED NEUTROPHIL: 4732 CELLS/uL
  BASOPHIL: 0%
  EOSINOPHIL: 0%
  ERYTHROCYTE COUNT: 4.99 x10E6/uL
  HEMATOCRIT: 31.07%
  HEMOGLOBIN: 12.4 G/DL
  LEUKOCYTE COUNT: 17.07 x10E3/uL
  LYMPHOCYTE: 69.67%
  MEAN CORPUSCULAR HEMOGLOBIN: 24.97 pg
  MEAN CORPUSCULAR HEMOGLOBIN CONCENTRATION: 39.93 G/DL
  MEAN CORPUSCULAR VOLUME: 62.43 fL
  MONOCYTE: 3.67%
  NEUTROPHIL: 26.67%
  NUCLEATED RED BLOOD CELLS: 0 /100WBC
  PLATELET COUNT: 1249.67 x10E3/uL
  ALANINE AMINOTRANSFERASE: 40.33 u/L
  ALBUMIN: 3.03 G/DL
  ALKALINE PHOSPHATASE: 327 u/L
  ASPARTATE AMINOTRANSFERASE: 65.67 u/L
  BLOOD UREA NITROGEN: 12.33 mg/dL
  CARBON DIOXIDE: 22.33 mmol/L
  CHLORIDE: 98.67 MEQ/L
  CHOLESTEROL: 62.67 mg/dL
  CREATINE PHOSPHOKINASE: 173 u/L
  CREATININE: 0.17 mg/dL
  GLUCOSE: 131 mg/dL
  LACTATE DEHYDROGENASE: 217 u/L
  LIPASE: 9 u/L
  PHOSPHORUS: 12.47 mg/dL
  POTASSIUM: 6.61 MEQ/L
  SODIUM: 143.17 MEQ/L
  TOTAL BILIRUBIN: 0.1 mg/dL
  TOTAL PROTEIN: 6.03 G/DL
  URIC ACID: 1.7 mg/dL
[4]
  ABSOLUTE BASOPHIL: 0 CELLS/uL
  ABSOLUTE EOSINOPHIL: 0 CELLS/uL
  ABSOLUTE LYMPHOCYTE: 17693 CELLS/uL
  ABSOLUTE MONOCYTE: 655 CELLS/uL
  ABSOLUTE SEGMENTED NEUTROPHIL: 5318.67 CELLS/uL
  BASOPHIL: 0%
  EOSINOPHIL: 0%
  ERYTHROCYTE COUNT: 5.09 x10E6/uL
  HEMATOCRIT: 30.4%
  HEMOGLOBIN: 12.37 G/DL
  LEUKOCYTE COUNT: 23.67 x10E3/uL
  LYMPHOCYTE: 76.67%
  MEAN CORPUSCULAR HEMOGLOBIN: 24.3 pg
  MEAN CORPUSCULAR HEMOGLOBIN CONCENTRATION: 40.7 G/DL
  MEAN CORPUSCULAR VOLUME: 59.73 fL
  MONOCYTE: 3%
  NEUTROPHIL: 20.33%
  NUCLEATED RED BLOOD CELLS: 0.33 /100WBC
  PLATELET COUNT: 1767.33 x10E3/uL
  ALANINE AMINOTRANSFERASE: 33.33 u/L
  ALBUMIN: 2.7 G/DL
  ALKALINE PHOSPHATASE: 254.33 u/L
  ASPARTATE AMINOTRANSFERASE: 66.33 u/L
  BLOOD UREA NITROGEN: 16.67 mg/dL
  CARBON DIOXIDE: 24.33 mmol/L
  CHLORIDE: 103.33 MEQ/L
  CHOLESTEROL: 55.67 mg/dL
  CREATINE PHOSPHOKINASE: 192.33 u/L
  CREATININE: 0.13 mg/dL
  GLUCOSE: 142.33 mg/dL
  LACTATE DEHYDROGENASE: 225.33 u/L
  LIPASE: 7.67 u/L
  PHOSPHORUS: 11.27 mg/dL
  POTASSIUM: 6.81 MEQ/L
  SODIUM: 144.57 MEQ/L
  TOTAL BILIRUBIN: 0.1 mg/dL
  TOTAL PROTEIN: 5.87 G/DL
  URIC ACID: 1.87 mg/dL
